The nature of test [1]: antipentylenetetrazole bioassay in mice. Type of test: in vivo. Particulars: Mus musculus, 2 h; for responders at 100 mg/kg: sc, 100 mg/kg compound 30 minutes before fatal dose of pentylenetetrazole (140 mg/kg s.c.), read-out: protection against pentylenetetrazole (animals still alive two hours after administration); for ED50: ip, i.p., pentylenetetrazole 140 mg/kg s.c., read-out: ED50 (dose at which 50% of the treated animals are protected). As to the method: To evaluate the anticonvulsant activity the compounds of the present invention have been submitted to the antipentylenetetrazole bioassay in mice. The experiments have been carried out by following essentially the methodology described by Berger in J. Pharm. Exptl. Ther. 104, 468, (1952). More particularly, a fatal dose of pentylenetetrazole (140 mg/kg s.c.) was administered to groups of ten mice each, treated, 30 minutes before the administration of the convulsant agent, with a selected dose (100 mg/kg) of the potential anticonvulsant compound. […] Since the animals of the control group died within 30 minutes, the effectiveness of the compounds tested was expressed as the number of animals of the group which were still alive two hours after the administration of pentylenetetrazole, out of the total number of animals of the group (10). In this experiment the compounds of examples 1,2,8, 9, 10, 11, 13, 14, 15, 16, and 17 were fully effective giving a 100% protection against pentylenetetrazole.

For the next test, the target named is benzodiazepine receptors. In words: "benzodiazepine receptors" test, displacement of ^3 H-Diazepam from rat brain receptors. Type of test: binding. Conditions: ^3 H-Diazepam displacement, read-out: In vitro Ki. As to the method: The anti-anxiety activity of the compounds of the present invention was shown by submitting the compounds to the "benzodiazepine receptors" test.
These experiments were carried out by following the method described by H. Mohler and T. Okada in Life Sciences, Vol. 20, 2101-2110 (1977).

Another test concerns the target GABA receptor. In words: GABA receptor assay, displacement of ^3 H-GABA. Particulars: for pIC50: ^3 H-GABA displacement; for displacement of ^3 H-GABA from its receptors: at micromolar concentrations. Type of test: binding. How it is done:
Furthermore some of the compounds of the present invention have been tested in the GABA receptor assay. In this test which was carried out by following the methodology described by M. Herschel and R. J. Baldessarini in Life Sciences, 24, 1849-1854, (1979), the compounds of examples 3 and 15 resulted to be active in displacing more than 50% of ^3 H-GABA from its receptors at micromolar concentrations. […] (As for the GABA's mediating effect of the anxiolytic action of benzodiazepines, see for instance S. J. Enna--Biochemical Pharmacology--30, No. 9, 907-913, (1981)).

pIC50, pKi: −log10 of the molar value. Structures can show the parent of a compound that is named as a salt.

A word on the pKi: it is −log10 of the Ki, conventionally taken in molar units. Consider `COc1ccc(C(=O)OC2N=C(c3ccccc3Cl)c3c(cn(C)c3C)N(C)C2=O)cc1` (centres unmarked) [Example 10], for which the responders at 100 mg/kg in test [1] turned out to be 100%. Moreover, the negative logarithm of the Ki (pKi) at benzodiazepine receptors is 8.09.

For orientation: pIC50 means the IC50 on a negative log10 scale, so that one unit is a factor of ten. The low end stands for a large IC50, the high end for a small IC50. For `Cc1ccccc1C(=O)OC1N=C(c2ccccc2Cl)c2c(cn(C)c2C)N(C)C1=O` (centres unmarked) [Example 3], the pKi at benzodiazepine receptors is 8.77. At GABA receptor, the negative logarithm of the IC50 (pIC50) is 4.46 and the “displacement of ^3 H-GABA from its receptors” value was “more than 50%”.

For the compound `Cc1c2c(cn1C)N(C)C(=O)C(OC(=O)c1ccc(-c3ccccc3)cc1)N=C2c1ccccc1Cl` (centres unmarked) [Example 11], in test [1], the responders at 100 mg/kg was 100%.

In the case of `Cc1c2c(cn1C)N(C)C(=O)C(OC(=O)CCC(=O)O)N=C2c1ccccc1Cl` (centres unmarked) [Example 13, 1,4-butandioic acid 1-[5-(2-chlorophenyl)-1,3,7-trihydro-1,6,7-trimethyl-2-oxo-pyrrolo[3,4-e][1,4]diazepinyl]ester], the responders at 100 mg/kg in test [1] stood at 100%.

The term ED50 denotes the midpoint of the dose-response relation. In the case of `Cc1c2c(cn1C)N(C)C(=O)C(OC(=O)C(C)C)N=C2c1ccccc1Cl` (centres unmarked) [Example 9, 5-(2-chlorophenyl)-1,7-dihydro-1,6,7-trimethyl-3-[(2-methyl-1-oxopropyl)oxy]-pyrrolo[3,4-e][1,4]diazepin-2(3H)-one], in test [1], the median effective dose (ED50) came to 5 mg/kg and the responders at 100 mg/kg stood at 100%. The negative logarithm of the Ki (pKi) at benzodiazepine receptors was 8.39.

For the compound `CCOC(=O)CCCNC(=O)CCC(=O)OC1N=C(c2ccccc2)c2c(cn(C)c2C)NC1=O` (centres unmarked) [Example 15, hydrochloride], the responders at 100 mg/kg in test [1] was found to be 100%. The negative logarithm of the Ki (pKi) at benzodiazepine receptors is 7.41. Also, at GABA receptor, the pIC50 is 5.52 and the “displacement of ^3 H-GABA from its receptors” value is “more than 50%”.

On to `CCOC1N=C(c2ccccc2Cl)c2c(cn(C)c2C)N(C)C1=O` (centres unmarked) [Example 16, 5-(2-chlorophenyl)-3-ethoxy-1,7-dihydro-1,6,7-trimethyl-pyrrolo[3,4-e][1,4]diazepin-2(3H)-one hydrochloride hydrate], for which the responders at 100 mg/kg in test [1] was determined as 100%. Besides, the pKi on benzodiazepine receptors was 7.61.

On to `Cc1c2c(cn1C)NC(=O)C(OC(=O)CCC(=O)O)N=C2c1ccccc1` (centres unmarked) [Example 14, 1,4-butandioic acid 1-[1,3,7-trihydro-6,7-dimethyl-2-oxo-5-phenyl-pyrrol[3,4-e][1,4]diazepinyl]ester], for which the responders at 100 mg/kg in test [1] worked out at 100%.

With `CCOC(=O)CCCNC1N=C(c2ccccc2Cl)c2c(cn(C)c2C)N(C)C1=O` (centres unmarked) [Example 18, 5-(2-chlorophenyl)-3-[[3-(ethoxycarbonyl)propyl]amino]-1,7-dihydro-1,6,7-trimethyl-pyrrolo[3,4-e][1,4]diazepin-2(3H)-one], the pKi at benzodiazepine receptors was 7.34.

Regarding `Cc1c2c(cn1C)N(C)C(=O)C(OC(=O)C(C)(C)C)N=C2c1ccccc1Cl` (centres unmarked) [Example 2, 5-(2-chlorophenyl)-1,7-dihydro-1,6,7-trimethyl-3-(2,2-dimethylpropanoyloxy)-pyrrolo[3,4-e][1,4]diazepin-2(3H)-one], the responders at 100 mg/kg in test [1] was found to be 100%. For the same compound, the negative logarithm of the Ki (pKi) on benzodiazepine receptors was 7.76.

Turning to `CCCC(=O)OC1N=C(c2ccccc2)c2c(cn(C)c2C)NC1=O` (centres unmarked) [Example 8, 1,7-dihydro-6,7-dimethyl-3-[(1-oxobutyl)oxy]-5-phenyl-pyrrolo[3,4-e][1,4]diazepin-2(3H)-one], the responders at 100 mg/kg in test [1] is 100%.

For `COC1N=C(c2ccccc2Cl)c2c(cn(C)c2C)N(C)C1=O.Cl.O` (centres unmarked) [Example 17, 5-(2-chlorophenyl)-1,7-dihydro-3-methoxy-1,6,7-trimethyl-pyrrolo[3,4-e][1,4]diazepin-2(3H)-one hydrochloride hydrate], in test [1], the ED50 stood at 8 mg/kg and the responders at 100 mg/kg was 100%. In addition, the pKi at benzodiazepine receptors was 7.64.

For `Cc1c2c(cn1C)N(C)C(=O)C(OC(=O)c1ccccc1)N=C2c1ccccc1Cl` (centres unmarked) [Example 1, 5-(2-chlorophenyl)-1,7-dihydro-1,6,7-trimethyl-3-(phenylcarbonyloxy)-pyrrolo[3,4-e][1,4]diazepin-2(3H)-one], in test [1], the responders at 100 mg/kg worked out at 100%. In addition, the negative-log Ki (pKi) on benzodiazepine receptors was 8.17.
